We go through 48 compounds from the OPERA property sets (Mansouri et al. 2018).

By melting point is commonly meant the temperature, or range, at which the solid turns liquid. One may read the boiling point as the temperature of boiling at a given pressure.

Details in the first data set: not given
Regarding `CCCCCCCCCCCCCO`, the log10 vapour pressure (mmHg) is -3.36, the melting point turned out to be 32.5 °C and the ready biodegradability result is reported as “readily biodegradable”.
Compound `CC(C)OC(=O)COc1cc(Cl)c(Cl)cc1Cl` returned a melting point of 45 °C.
Take `S=C(SSSSC(=S)N1CCCCC1)N1CCCCC1`: the ready biodegradability entry was “not readily biodegradable”.
`CCCc1ccccc1O` gave a boiling point of 220 °C, a log10 vapour pressure (mmHg) of -1.05 and a melting point of 7 °C.
The compound `CCc1c(C)[nH]c2c1C(=O)C(CN1CCOCC1)CC2` (stereo not given) registered a melting point of 180 °C.
For the compound `Cc1ccc(C)c(Cc2ccccc2)c1`, the ready biodegradability entry is reported as “not readily biodegradable”.
As to `c1ccc(NC2CCCCC2)cc1`, the boiling point was found to be 279 °C and the melting point came out at 16 °C.
In the case of `COc1cccc(C=O)c1`, the boiling point was determined as 231 °C and the ready biodegradability result is “readily biodegradable”.
In turn, `O=[N+]([O-])c1ccc2c(c1)Cc1cc([N+](=O)[O-])ccc1-2` had a melting point of 334 °C.
As for `CCC(C#N)CC`, the boiling point was 146 °C.
With `Oc1c(Cl)c(Cl)cc(Cl)c1Cl`, the melting point amounted to 115 °C.
`CCCCCC(C)(C)C` returned a boiling point of 133 °C, a log10 biodegradation half-life (days) of 0.778, a log10 vapour pressure (mmHg) of 1.03 and a melting point of -113 °C.
`CCCCOC(=O)COc1cc(Cl)c(Cl)cc1Cl`: the log10 vapour pressure (mmHg) was -4.82 and the melting point came out at 28.5 °C.
In turn, `COC(=O)CCCCCCCCCCC(=O)OC` yielded a melting point of 31.9 °C.
`Cc1cccc(O)c1C` yielded a boiling point of 217 °C, a log10 Henry constant (atm·m³/mol) of -6.13, a log10 vapour pressure (mmHg) of -1.05 and a melting point of 72.8 °C.
With `Nc1cccc(C(=O)c2cccc(N)c2)c1`, the melting point was 174 °C.
Consider `CCCCCCC(=O)OCCC`, for which the boiling point was 208 °C and the melting point is -63.5 °C.
Compound `O=C(O)CC(Br)C(=O)O` (stereo not given) had a melting point of 161 °C.
With `CCCCCCCC/C=C\CCCCCCCCCCCC(=O)O`, the melting point came out at 33.5 °C.
Take `CCC(C)(O)C(C)C` (stereo not given): the boiling point came out at 140 °C.
Regarding `C=CC(C)Cl` (stereo not given), the boiling point was found to be 64.5 °C and the log10 vapour pressure (mmHg) came out at 2.18.
Regarding `C#CCCC(=O)O`, the melting point worked out at 57.7 °C.
With `CC(C)CCCC(C)(C)O`, the boiling point is 173 °C.
Compound `FCCCCCCl` yielded a boiling point of 143 °C.
`N#Cc1ccnc2ccccc12` displayed a boiling point of 242 °C and a melting point of 104 °C.
In the case of `CCCc1ccc(N)cc1`, the boiling point was found to be 225 °C.
The compound `CCOc1cc(OCC)cc(OCC)c1` showed a melting point of 43.5 °C.
`CC(=O)OC/C=C(\C)CCC=C(C)C` came in with a boiling point of 238 °C and a log10 vapour pressure (mmHg) of -1.48.
In turn, `N#Cc1ccccc1C(F)(F)F` showed a boiling point of 205 °C and a melting point of 18 °C.
The compound `c1ccc2c(c1)Oc1ccccc1O2` came in with a log10 vapour pressure (mmHg) of -3.38 and a melting point of 122 °C.
Turning to `CCCC=CC(C)C`, the boiling point was 112 °C and the melting point is -108 °C.
As to `c1ccc2c3c(ccc2c1)-c1cccc2cccc-3c12`, the log10 biodegradation half-life (days) worked out at 2.48 and the melting point came to 166 °C.
As for `O=C(O)c1cccc(C(F)(F)F)c1`, the boiling point came out at 238 °C and the melting point worked out at 106 °C.
`O=[N+]([O-])c1ccc(Cl)cc1Cl`: the boiling point was found to be 258 °C, the melting point is 34 °C and the ready biodegradability result is listed as “not readily biodegradable”.
In the case of `Nc1cc(Cl)c(O)c(Cl)c1`, the melting point was 168 °C.
As for `O=C(O)c1c(Cl)cccc1Cl`, the melting point is 144 °C and the ready biodegradability entry is reported as “not readily biodegradable”.
Consider `CC(C)(C)NC[C@H](O)COc1nsnc1N1CCOCC1`, for which the melting point came out at 202 °C.
`CC(=O)c1cc2c(cc1C)C(C)(C)C(C)CC2(C)C` (stereo not given): the melting point was determined as 54.5 °C.
As to `Cc1ccc2ccc(=O)oc2c1`, the melting point was 128 °C.
In turn, `CC(C)(Br)C(=O)O` yielded a boiling point of 199 °C and a melting point of 48.5 °C.
In turn, `CCOc1ccc(N)c(N)c1` yielded a boiling point of 295 °C and a melting point of 71.5 °C.
In turn, `CCCCCCCCCCC=O` gave a melting point of -4 °C.
On to `CN[C@@H](C)Cc1ccccc1.Cl`, for which the melting point is 172 °C.

Staying with this data set, now noted: fish.
Compound `Clc1ccc(-c2cc(Cl)c(Cl)c(Cl)c2Cl)cc1Cl` came in with a log10 biotransformation half-life (days) of 2.73.
`CC(C)(c1ccc(O)cc1)c1ccc(O)cc1` gave a log10 BCF of 1.64 and a log10 biotransformation half-life (days) of 0.27.
Compound `c1cc2c3c(ccc4c3c1CCC4)CCC2` returned a log10 biotransformation half-life (days) of 0.42.
`COc1cc(Cl)c(Cl)cc1O` returned a log10 BCF of 2.03 and a log10 biotransformation half-life (days) of -0.15.
In turn, `Clc1cc(-c2cc(Cl)c(Cl)c(Cl)c2Cl)c(Cl)c(Cl)c1Cl` registered a log10 biotransformation half-life (days) of 3.
For `S=C(SSSSC(=S)N1CCCCC1)N1CCCCC1`, the log10 BCF was determined as 1.23.
The compound `Cc1ccc(C)c(Cc2ccccc2)c1` gave a log10 BCF of 3.14 and a log10 biotransformation half-life (days) of 0.45.
With `Oc1c(Cl)c(Cl)cc(Cl)c1Cl`, the log10 BCF worked out at 2.15 and the log10 biotransformation half-life (days) was -0.1.
Take `O=[N+]([O-])c1ccc(Cl)cc1Cl`: the log10 BCF is 2.07 and the log10 biotransformation half-life (days) came out at 0.83.
`O=C(O)c1c(Cl)cccc1Cl` had a log10 BCF of 0.26.
